Measured values from patent US20230203156A1, “ANTI-MDR1 ANTIBODIES AND USES THEREOF” (KENJOCKETY BIOTECHNOLOGY, INC., priority 2020, published 2023).
Where two headings read alike, the source gives them in different places.

What was measured:
human MDR1 = molecular target: T1, human MDR1 (Homo sapiens, UniProt P08183); assay: Efflux blockade of MDR1 fluorescent substrates (flow cytometry); type: cell-based
T1 construct: expressed in transfected cells
Description: HEK 293T cells expressing human MDR1 or MES-SA/DX5 cells expressing human MDR1 were washed several times and aliquoted into 96-well plates as 50 µl aliquots/well at a cell density of 1 x 10e6 cells per ml in phenol red-free DMEM. Cells were mixed with 300 nM to 1 nM antibodies and incubated for 1 h at 37° C. To determine efflux blockade cells were incubated in the presence of B1 fluorescent substrates as follows: 0.6 µM Rhodamine; 5 µM […] (DiOC2(3)) or 0.6 µM Calcein AM for 1.5 h at 37° C. The cells were then washed twice and finally resuspended in […] PBS. Rhodamine, DiOC2(3) or Calcein AM fluorescence were measured by flow cytometry.
Effect of anti-MDR1 antibodies on efflux of MDR1 substrates Calcein, DIOC2, and Rhodamine was assessed as described in efflux blockade experimental procedure.

N6/ADR cells = assay: Vincristine cytotoxicity assay on N6/ADR cells (CellTiter-Glo); type: cell-based, human; conditions: for IC50: Homo sapiens
Description: (§1) The effect of antibodies on vincristine cytotoxicity was evaluated on N6/ADR, a doxorubicin-selected, ABCB1-positive variant of the human acute lymphoblastic leukemia (ALL) cell line, NALM6. Cells were plated in 0.05 mL of Assay Media (RPMI-1640 +10% FBS) at 5000 cells/well in white flat bottom 96-well tissue culture plates. Vincristine was prepared at 2X final assay concentration by serial dilution from 200 uM in assay media containing test antibodies or control antibodies at 100 ug/mL (2X final concentration), or valspodar, a small molecule KPB1 inhibitor at 7 uM (2X final concentration). An equivalent volume (0.05 mL) of the vincristine/antibody mixture was added to the N6/ADR cells in 96-well plates. The plates were then incubated at 37° C., in 5% CO2. After 72 hr plates were equilibrated to room temperature and cell viability assessed using Promega® CellTiter-Glo® Luminescent Cell Viability Assay according to the manufacturer’s recommended protocol. Luminescence was measured on a Molecular Devices® FlexStation® 3 Multi-Mode Microplate Reader and data analyzed using GraphPad Prism 8.0 software.
as §1, with “Cytotoxicity Assays. The effect” for “The effect”, “a doxorubicin-selected, B1-positive variant of” for “a doxorubicin-selected, ABCB1-positive variant of”, “small molecule B1 inhibitor at” for “small molecule KPB1 inhibitor at”, “8.0 software. Half maximal inhibitory concentration (IC50) is the concentration of drug (vincristine or other chemotherapy cytotoxic agent) where the response (cell growth) is reduced by 50%.” for “8.0 software.”

[1] = test system: MES-SA DX5 uterine sarcoma; assay: MES-SA DX5 drug-resistant uterine sarcoma model in nude mice; type: in vivo; conditions: MES-SA DX5 tumors in vivo
Description: Anti-ABCB1 antibodies B1.129, B1.261, B1.223, B1.225, B1.188, B1.28, and B1.226 were tested for effect on growth of tumors in immunodeficient mice. The following cancer cell lines were used for generating tumor models.
MES-SA DX5: The multi drug-resistant cell line MES-SA/Dx5 (Sigma. 95051031) was derived from the human uterine sarcoma cell line MES-SA (Sigma Catalogue number. 95051030) which was originally obtained from a tumour from a person at the time of hysterectomy. […] Cross resistance to bleomycin, cisplatin, carmustine, 5-fluorouracil or methotrexate was not observed.
Nude mice were implanted with MES-SA DX5 cells to model uterine sarcoma. Anti-B1 monoclonal antibodies are efficacious in MES-SA DX5 uterine sarcoma model in nude mice.

[2] = test system: human MDR1 extracellular loops 1 and 4 (ECD1, ECD4); assay: Epitope mapping with mutant human MDR1 expressed on 293T cells (flow cytometry); type: binding; conditions: mutant versus WT human ABCB1; preliminary epitope mapping
Description: To determine binding of anti-MDR1 mAbs listed in Table 2 to the two major extracellular loops 1 and 4 of MDR1, various mutations were constructed to alter or substitute these two loops. To examine binding to cynomolgus extracellular loops, the extracellular loop 1 and/or loop 4 of cynomolgus MDR1 were grafted (with a C-terminal FLAG tag) to substitute for the human loops in the human MDR1 using standard techniques. To examine binding dependence on the normal human loops, MDR1 variants with deletion 79-102 and deletion 82-99 in loop 1 were also generated. Loop 1 is also referred to as ECD1. Loop 4 is also referred to as ECD4. These mutant MDR1 efflux pump variants were expressed on 293T cells using standard methods to generate cells that could be used to distinguish binding of various anti-MDR1 mAbs. The different cells were incubated with different anti-MDR1 mAbs for about 1 hour at 4° C. The cells were washed twice with FACS buffer (PBS containing 0.5% BSA). Alexa647 labeled goat anti-human antibody was added as a secondary antibody, and the samples were incubated on ice for another 1 hour. Samples were washed again and analyzed by flow cytometry.
FIG. 9 summarizes the findings from preliminary epitope mapping using mutant human MDR1. […] For example, anti-MDR1 mAb B1.129 requires ECD1 and ECD4 for binding to human MDR1. All of the anti-MDR1 antibodies contact ECD4. […] ECD1 refers to the first extracellular domain of human ABCB1, ECD4 refers to the fourth extracellular domain of human ABCB1 and “others” refers to the remainder of the extracellular domains 2-3 and 5-6 of human ABCB1. Only binding to ECD1 and ECD4 was tested.

[3] = test system: DX5-B1 KO uterine sarcoma; assay: Uterine sarcoma formed from MES-SA DX5 cells lacking ABCB1 expression (DX5-B1 KO); type: in vivo

Compound: 15D3: anti-ABCB1 antibody known as 15D3; VH SEQ ID NO:287, VL SEQ ID NO:284 [reference compound]
- inhibition of efflux of DIOC2 (human MDR1; 293T.hB1 cell line): no observable effect
- inhibition of efflux of Rhodamine (human MDR1; 293T.hB1 cell line): low inhibition
- inhibition of efflux of DIOC2 (human MDR1; MES-SA/Dx5 cells): no observable effect
- inhibition of efflux of Rhodamine (human MDR1; MES-SA/Dx5 cells): no effect
- potentiation of vincristine mediated cytotoxicity (N6/ADR cells; N6/ADR cells): did not potentiate
- sensitization of MES-SA DX5 uterine sarcoma to paclitaxel [1]: did not sensitize
- ECD1 required for antibody binding to human ABCB1 [2]: do not require
- ECD4 required for antibody binding to human ABCB1 [2]: bind to an epitope that includes ECD4 sequences

Compound: CC[C@]1(O)C[C@H]2CN(CCc3c([nH]c4ccccc34)[C@@](C(=O)OC)(c3cc4c(cc3OC)N(C=O)[C@H]3[C@@](O)(C(=O)OC)[C@H](OC(C)=O)[C@]5(CC)C=CCN6CC[C@]43[C@@H]65)C2)C1 [Vincristine, vincristine]
- IC50 (N6/ADR cells; 72 h, read-out: IC50 (pM), cytotoxicity to N6/ADR cells by vincristine): 4120 pM
- IC50 (N6/ADR cells; IC50 of vincristine alone or with antibody, N6/ADR cells, 72 hr, read-out: IC50 (nM), vincristine cytotoxicity): 543 pM

Compound: CC(=O)O[C@H]1C(=O)[C@@]2(C)[C@H]([C@H](OC(=O)c3ccccc3)[C@]3(O)C[C@H](OC(=O)[C@H](O)[C@@H](NC(=O)c4ccccc4)c4ccccc4)C(C)=C1C3(C)C)[C@]1(OC(C)=O)CO[C@@H]1C[C@@H]2O [paclitaxel]
- sensitivity of tumor to paclitaxel [3]: sensitive

Compound: KPA08: anti-ABCB1 antibody with two heavy chains from 15D3 and two light chains from MRK16 [reference compound]
- ECD1 required for antibody binding to human ABCB1 [2]: do not require
- ECD4 required for antibody binding to human ABCB1 [2]: bind to an epitope that includes ECD4 sequences

Compound: MRK16: anti-ABCB1 antibody known as MRK16; VH SEQ ID NO:286, VL SEQ ID NO:283
- potentiation of vincristine mediated cytotoxicity (N6/ADR cells; N6/ADR cells): did not potentiate
